Where a SMILES comes first, the peptide text is derived from it. [ ]: non-standard residue; d: D form. The star is where a group is joined. Pro(3S-CH2tBu) = CC(C)(C)C[C@H]1CCN[C@@H]1C(=O)O; X4 = CN(Cc1ccccc1)C(=O)/C=C/C(=O)N(CC(=O)O)N*; X3 = O=C(O)CN(N*)C(=O)COc1c(F)cccc1F; Quinaldoyl = O=C(c1ccc2ccccc2n1)*; X1 = c1ncc(CO*)s1
Test system: hippocampal neurons intoxicated with Aβ1-42 oligomers
Assay: Protection against Abeta neurotoxicity in primary hippocampal neurons in microfluidic chambers
Assay type: cell-based, mice
Parameters: key to Protective effect against Aβ toxicity: +: significant protection against a Aβ-induced cell death, Aβ-induced axonal degeneration, Aβ-induced electrophysiological dysfunction, and/or Aβ-induced synapse loss
Conditions: for Protective effect against Aβ toxicity: hippocampal cells pre-incubated 1 h, then Aβ1-42 oligomers
From the text: Hippocampus are micro-dissected from E16 embryos of C57B16/J wt mice (Rene Janvier, France) in cold Gey's Balanced Salt Solution (GBSS, Sigma) supplemented with 0.1% glucose (Life technologies).
Dissected structures are digested with papain (20 U/ML in DMEM, Sigma; St. Louis, Mo., USA) and mechanically dissociated in the presence of DNAse. Hippocampal cells are then rinsed and re-suspended in DMEM (Life Technologies, Inc., Gaithersburg, Md., USA) to a final density of 18 million cells/ml in Neurobasal (Life technologies) and Glutamax (0.1% LifeTechnologies) supplemented with B27 (1/50) and penicilline/sptreptomycine 1% (Gibco).
This cell suspension is then used to fill the reservoirs of microfluidic chambers, as described (Peyrin et al, 2011 Lab Chips 11(21):3663; Deleglise et al, 2014 Acta Neuropathologica Comm. 2: 145). Microfluidic chips are placed in plastic Petri dishes containing H20-EDTA to prevent evaporation and incubated at 37° C. in a humid 5% CO2 atmosphere. The culture medium is renewed every seven days.
Oligomeric form of Aβ1-42 (Tocris Bioscience, MN, USA), is produced according to Stine W B et al (2003) in J Biol Chem 278, pp 11612-11622 and can be controlled by electron microscopy as in Deleglise B et al. in Acta Neuropathol Commun. 2014; 2: 145).
Briefly, Aβ1-42 lyophilized peptides are solubilized at 1 mM in 1, 1, 1, 3, 3, 3,-hexafluoro-2-propanol (HFIP, Sigma Aldrich). After 30 min of incubation at RT, HFIP is evaporated for 12 h under chemical hood and peptides are dried for 1 h (with a Speed Vac at 4° C.). Then, 5 mM Aβ peptide stock solutions are obtained by resolubilization at in dimethylsulfoxide (DMSO, Sigma Aldrich). To obtain oligomers, Aβ peptide stock solution is diluted in cold phenol free DMEM-F12 medium (Life Technologies) to a final concentration of 100 μM. The solution is then incubated 24 h at 4° C. Soluble Aβ oligomer fraction is collected from the supernatant after a centrifugation step at 20 000 g (10 min; 4° C.), and stored at −80° C. until use.
After 18 days of culture in micro fluidic chambers, hippocampal cells are pre-incubated for 1 h with compounds of the invention prior diluted in phenol free DMEM-F12 medium or in phenol free DMEM-F12 medium alone as a control solution. Cells are then intoxicated for 3 h to 6 h or 24 h with 10 or 100 nm of Aβ1-42 oligomers (or with phenol free DMEM-F12 medium alone as a control solution). After the intoxication step, cells are fixed in 4% paraformaldehyde (PFA, Sigma; St. Louis, Mo., USA) for 20 min RT, and labelled as explained below to evaluate synapses status, cell death or axonal degeneration.
Briefly, after the fixation step, cultures cells are washed twice with PBS+Azide 0.1% for 5 min and permeabilized for 10 min with 0.2% Triton X-100 and 0.1% BSA (Bovine Serum Albumin, Sigma) in PBS+Azide 0.1%. Saturation step is then realized by incubating cells during 30 min in PBS+Azide 0.1%+BSA1%. Primary antibodies are then added and the samples incubated at 4° C. overnight in PBS. Afterwards, samples are rinsed twice for 5 min with PBS+Azide 0.1% and further incubated with the corresponding secondary antibody together with phalloidin conjugated to Alexa Fluor 555 for 2 h RT. The chips were then rinsed twice with PBS+Azide 0.1%.
The following antibodies are used: rabbit polyclonal anti-MAP-2 (AB5622; 1/400, MILLIPORE), mouse monoclonal Anti-Bassoon SAP7F407; 1:400, Enzo LifeSciences). Species-specific secondary antibodies coupled to Alexa 350, 488 or 500 are used (1/500, Life Technologies, Inc., Gaithersburg, Md., USA). Phalloidin conjugated to Alexa Fluor 555 (1/500, EnzoLifeTechnologies) is used to stain F-actin.
Images are acquired with an Axio-observer Zl (Zeiss, Germany) fitted with a cooled CCD camera (CoolsnapHQ2, Ropert Scientific). The microscope is controlled with Metamorph and Micro-manager software. Images were analyzed using ImageJ software.

Row | Compound | Synapse protection toward Amyloid beta peptide [1-42] oligomers toxicity (FIG. 1) (pretreated at 0.1 μM or 1 μM, Aβ[1-42] oligomers 10 nM, **p<0.01) | Protective effect against Aβ toxicity
1 | CC(C)[C@H](NC(=O)c1ccc2ccccc2n1)C(=O)N[C@@H](CC(=O)O)C(=O)N[C@H](C(=O)N1CC[C@H](CC(C)(C)C)[C@H]1C(=O)N[C@@H](CC(=O)O)C(=O)COc1c(F)cccc1F)C(C)C (single isomer, unassigned) [Compound 2 enantiomer a] | Synapse protection | –
2 | CC(C)[C@H](NC(=O)c1ccc2ccccc2n1)C(=O)N[C@@H](CC(=O)O)C(=O)N[C@H](C(=O)N1CC[C@H](CC(C)(C)C)[C@H]1C(=O)N[C@@H](CC(=O)O)C(=O)OCc1cncs1)C(C)C [Compound 3, (S)-4-(((S)-1-((2S,3S)-2-(((S)-3-carboxy-1-oxo-1-(thiazol-5 - ylmethoxy)propan-2-yl)carbamoyl)-3-neopenthylpyrrolidin-1-yl)-3-methyl-1-oxobutan-2-yl)amino)-3-((S)-3-methyl-2-(quinoline-2-carboxamido)butanamido)-4-oxobutanoic acid] (Quinaldoyl-VDV[Pro(3S-CH2tBu)]D-X1) | – | +
3 | CC(C)[C@H](NC(=O)c1ccc2ccccc2n1)C(=O)N[C@@H](CC(=O)O)C(=O)N[C@H](C(=O)N1CC[C@H](CC(C)(C)C)[C@H]1C(=O)NN(CC(=O)O)C(=O)COc1c(F)cccc1F)C(C)C [Compound 4, (S)-4-(((S)-1-((2S,3S)-2-(2-(carboxymethyl)-2-(2-(2,6-difluorophenoxy)acetyl)hydrazinecarbonyl)-3-neopentylpyrrolidin-1-yl)-3-methyl-1-oxobutan-2-yl)amino)-3-((S)-3-methyl-2-(quinoline-2-carboxamido)butanamido)-4-oxobutanoic acid] (Quinaldoyl-VDV[Pro(3S-CH2tBu)]-X3) | – | +
4 | CC(C)[C@H](NC(=O)c1ccc2ccccc2n1)C(=O)N[C@@H](CC(=O)O)C(=O)N[C@H](C(=O)N1CC[C@H](CC(C)(C)C)[C@H]1C(=O)NN(CC(=O)O)C(=O)/C=C/C(=O)N(C)Cc1ccccc1)C(C)C [Compound 5, (S)-4-(((S)-1-((2S,3S)-2-(2-((E)-4-(benzyl(methyl)amino)-4-oxobut-2-enoyl)-2-(carboxymethyl)hydrazinecarbonyl)-3-neopentylpyrrolidin-1-yl)-3-methyl-1-oxobutan-2-yl)amino)-3-((S)-3-methyl-2-(quinoline-2-carboxamido)butanamido)-4-oxobutanoic acid] (Quinaldoyl-VDV[Pro(3S-CH2tBu)]-X4) | – | +
5 | CC(C)[C@H](NC(=O)[C@H](CC(=O)O)NC(=O)C(=O)Nc1ccccc1C(C)(C)C)C(=O)N1CC[C@H](CC(C)(C)C)[C@H]1C(=O)NN(CC(=O)O)C(=O)COc1c(F)cccc1F [Compound 6, (S)-3-(2-((2-(tert-butyl)phenyl)amino)-2-oxoacetamido)-4-(((S)-1-((2S,3S)-2-(2-(carboxymethyl)-2-(2-(2,6-difluorophenoxy)acetyl)hydrazinecarbonyl)-3-neopentylpyrrolidin-1-yl)-3-methyl-1-oxobutan-2-yl)amino)-4-oxobutanoic acid] | – | +

— patent US11407741B2, “Compounds and their use as selective inhibitors of caspase-2” (priority 2017, dated 2022)
